Measured values reported in PMC9764189 (The Journal of Biological Chemistry, 2022).
Where two headings read alike, the source gives them in different places.

What was measured:
MR1 = MR1 (Homo sapiens, UniProt Q95460); assay: biochemical; format: binding; conditions: for IC50: IC50, 10 nM JYM20, 100 nM MR1-empty, 25 °C, pH 7.5; for Binder category (ligand affinity for MR1): category by IC50
Chain of MR1 (Q95460 23-302 limits assumed): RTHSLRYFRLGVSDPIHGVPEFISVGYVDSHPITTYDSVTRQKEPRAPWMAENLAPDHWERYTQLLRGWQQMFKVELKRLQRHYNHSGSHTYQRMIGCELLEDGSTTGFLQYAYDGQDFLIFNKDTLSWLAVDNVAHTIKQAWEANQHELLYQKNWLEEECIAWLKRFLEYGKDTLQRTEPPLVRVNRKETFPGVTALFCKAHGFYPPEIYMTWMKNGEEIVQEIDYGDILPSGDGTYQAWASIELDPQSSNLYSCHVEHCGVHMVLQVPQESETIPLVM
Chain of MR1 (P61769 21-119 partner): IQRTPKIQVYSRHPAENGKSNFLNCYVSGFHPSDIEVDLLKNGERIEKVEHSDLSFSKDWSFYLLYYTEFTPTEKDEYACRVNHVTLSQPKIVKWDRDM

Structure (SMILES)	IC50 (MR1) [µM]	Binder category (ligand affinity for MR1) (MR1)	Upregulation of surface MR1 (C1R.MR1 cells; 3 h incubation)	Concentration at which MR1 was upregulated significantly (C1R.MR1 cells; 3 h incubation, versus DMSO) [µM]	Upregulation of surface MR1 (C1R.MR1 cells; 16 h incubation)
O=C(O)Cc1ccccc1Nc1c(Cl)cccc1Cl [DCF, diclofenac]	2600	–	–	–	–
COc1cc(C=O)ccc1O [Vanillin, vanillin]	325	weak (weak (IC50 > 100 μM))	upregulated	10	modest increase
O=Cc1cccc(C(=O)O)c1O [3-F-SA, 3-formylsalicylic acid]	0.563	–	–	–	–
O=C(O)CCNC(=O)c1cc(=O)[nH]c(=O)[nH]1 [DB28, 3-[(2,6-dioxo-1,2,3,6-tetrahydropyrimidin-4-yl)formamido]propanoic acid]	20	–	–	–	–
CCOc1cc(C=O)ccc1O [Ethylvanillin, ethylvanillin]	325	–	upregulated	–	no noticeable upregulation
COc1ccc(O)c(C=O)c1 [HMB, 2-hydroxy-5-methoxybenzaldehyde]	775	weak (weak (IC50 > 100 μM))	–	–	–
